Holding throughout (assay type): in vivo, human
The test system of assay [1] is subjects with advanced hematologic malignancies undergoing myeloablative alloHCT. Briefly: Clinical study: GVHD and relapse-free survival, cGVHD-free survival. To be noted: tacrolimus-only relative to sirolimus-only patients, FIG. 7G.
Source text: GVHD and relapse-free survival is a composite readout that can refer to survival without relapse or Grade ≥3 acute or extensive chronic GVHD.
For assay [2] the test system is unchanged. The assay can be described thus: Clinical study: overall survival. To be noted: tacrolimus-only relative to sirolimus-only patients, FIG. 7H.
Source text: Overall survival: OS was defined as the time from the date of transplant to the date of death from any cause or, for surviving patients, to the date of last follow-up.
Assay [3] deals with CD3+ cells of donor origin. Briefly: Donor T cell chimerism versus tacrolimus trough level. Conditions: lower average trough tacrolimus level through day +30, p=0.0011, FIG. 9H. As for the experimental part:
Peripheral blood samples from subjects were also analyzed for chimerism as part of the follow-up procedures. The blood samples were processed to select for various cell populations using standard markers for each cell population. Blood was drawn from subjects that received the composition of the disclosure on day +28, day +56, day +100, day +180 and day +365 post-transplant, and the frequency of peripheral blood cells were quantified by flow cytometry (Markers used for analysis are described in Table 16).
Without wishing to be bound by a theory, it can be hypothesized that an improved chimerism due to higher tacrolimus levels may have led to the improved GVHD and survival outcomes in patients.

Assay [4] has as its system subjects with advanced hematologic malignancies undergoing myeloablative alloHCT. The assay can be described thus: Clinical study: disease relapse and disease status. To be noted: tacrolimus-only relative to sirolimus-only patients. As for the experimental part:
(§1) A clinical study was conducted in subjects with advanced hematologic malignancies undergoing myeloablative allogeneic hematopoietic cell transplantation (alloHCT).
(§2) Personnel who identified subjects for the SOC cohort were blinded as to their clinical outcomes.

Assay [5] has the same test system. Briefly: Clinical study: chronic GVHD (NIH criteria). Conditions: serum tacrolimus trough higher versus lower than 4 ng/ml, FIG. 9B. As for the experimental part: as §1, §2
Assay [6] shares this test system. The assay can be described thus: Clinical study: acute GVHD (MAGIC criteria). The procedure:
as §1, §2
Acute GVHD was staged and graded per MAGIC Standardization criteria.
Acute GVHD: Acute GVHD (aGVHD) is a significant driver of morbidity and mortality associated with alloHCT, reducing the severity and incidence of aGVHD has the potential to greatly benefit graft recipients. Acute GVHD was staged and graded per Mount Sinai Acute GvHD International Consortium (MAGIC) Standardization criteria.

Regarding `C=CC[C@@H]1/C=C(\C)C[C@H](C)C[C@H](OC)[C@H]2O[C@@](O)(C(=O)C(=O)N3CCCC[C@H]3C(=O)O[C@H](/C(C)=C/[C@@H]3CC[C@@H](O)[C@H](OC)C3)[C@H](C)[C@@H](O)CC1=O)[C@H](C)C[C@@H]2OC` [tacrolimus], in assay [1], the GRFS rates result is on record as “improved”. In assay [2], the overall survival rates result was “improved”. In addition, the “engraftment of donor T cells (T cell chimerism)” value in assay [3] is listed as “increased engraftment of donor T cells”. Further, in assay [4], the “survival (FIG. 7E)” value is “improved”. For the same molecule, in assay [4] (FIG. 7F), the relapse rates entry is “improved”. In assay [5], the “chronic GVHD rates” value is “improvements”. Moreover, the GVHD rates result in assay [6] (average serum tacrolimus trough level higher than 4 ng/ml for the first 30 days post-transplant, FIG. 8A) is on record as “lower GVHD rates”; in assay [6] (same conditioning regimen (Bu/Cy or TBI/BFT), trough higher versus lower than 4 ng/ml, FIGS. 9C-G), “improvement in GVHD rates”; in assay [6] (tacrolimus only versus sirolimus only prophylaxis, FIGS. 7A-C), “higher GVHD rates”. Also, the “Acute GVHD rates” value in assay [6] (serum tacrolimus trough higher versus lower than 4 ng/ml, FIG. 9A) is recorded as “significant improvement”.

For the origin of these results see US20230372393A1, “METHODS FOR ALLOGENEIC HEMATOPOIETIC STEM CELL TRANSPLANTATION” (Orca Biosystems, Inc., priority 2020, published 2023).
